This test has as its target T1, AXL (human catalytic domain) (Homo sapiens, UniProt P30530).
T1 construct: purchased Upstate Ltd. 14-512
T1 sequence (P30530 473-894): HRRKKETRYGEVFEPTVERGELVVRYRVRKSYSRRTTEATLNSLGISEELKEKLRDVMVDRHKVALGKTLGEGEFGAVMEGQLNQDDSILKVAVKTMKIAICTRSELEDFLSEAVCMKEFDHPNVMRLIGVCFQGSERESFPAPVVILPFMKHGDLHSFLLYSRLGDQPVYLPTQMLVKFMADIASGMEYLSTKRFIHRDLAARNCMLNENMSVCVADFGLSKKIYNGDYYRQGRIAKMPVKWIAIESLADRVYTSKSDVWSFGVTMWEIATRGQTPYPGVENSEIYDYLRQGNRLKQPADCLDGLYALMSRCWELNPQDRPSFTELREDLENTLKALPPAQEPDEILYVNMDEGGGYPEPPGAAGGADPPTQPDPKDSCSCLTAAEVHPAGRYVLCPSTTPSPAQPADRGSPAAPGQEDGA
Kind of test: AXL (human catalytic domain) Enzyme Activity Assay (IMAP fluorescence polarisation). The test is classed as biochemical. The method in brief:
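IMAP FP readout (Ex485/Em535, after overnight binding) measured inhibition of the human AXL catalytic domain (aa473-894, 15 nM final) acting on 100 nM 5FAM-CSK-tide at 150 μM ATP, equal to KM. Reactions ran 60 min at room temperature in pH 7.0 HEPES buffer; IC50 from 10-point curves.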

Setting [1] is: first data set, recombinant AXL isoform 1 aa473-894, 150 μM ATP.
The mark [2] stands for this setting: further data set (WW-001 through WW-169, XX-001 through XX-469, YY-001 through YY-016, ZZ-001 through ZZ-003), 150 μM ATP.

The source of these data is patent US8431596B2 (Cancer Research Technology Limited, priority 2007, dated 2013).

A word on the IC50: it is the concentration that inhibits the measured activity by half. Regarding `COc1ccc(-c2cccc3nc(NC(=O)C4CC4)nn23)c(OC)c1` [WW-010, Cyclopropanecarboxylic acid [5-(2,4-dimethoxy-phenyl)-[1,2,4]triazolo[1,5-a]pyridin-2-yl]-amide], the IC50 runs as follows: under setting [1], 1000 to 10000 nM; under setting [2], 1000 to 10000 nM.

On to `O=C(Nc1nc2cccc(-c3cnc4ccccc4c3)n2n1)C1CC1` [WW-085], for which the IC50 reads like this: under setting [1], 1000 to 10000 nM; under setting [2], 1000 to 10000 nM.

As for `COc1cccc(NC(=O)Nc2cccc(-c3cccc4nc(Nc5ccc(OCCN6CCCC6)cc5)nn34)c2)c1` [XX-230], the IC50 under setting [2] was in the range of 1000 to 10000 nM.

Molecule `c1coc(CSCCn2cc(-c3cccc4nc(Nc5ccc(OCCN6CCCC6)cc5)nn34)cn2)c1` [XX-427] had an IC50 under setting [2] of 100 to 1000 nM.

With `O=C(Nc1cccc(-c2cccc3nc(Nc4ccc(OCCN5CCCC5)cc4)nn23)c1)c1ccccc1` [XX-179], the IC50 under setting [2] was 100 to 1000 nM.

`COc1ccc(-c2cccc3nc(Nc4ccc5c(c4)OCCN5C)nn23)cc1` [XX-013]: the IC50 reads like this: under setting [1], less than 1000 nM; under setting [2], 100 to 1000 nM.

Turning to `CCN(CC)CCOc1cc(Nc2nc3cccc(-c4cccc(CO)c4)n3n2)ccn1` [XX-357], under setting [2], the IC50 lay within 100 to 1000 nM.

In the case of `O=C(Nc1nc2cccc(-c3ccc(O)cc3)n2n1)C1CC1` [WW-022, cyclopropanecarboxylic acid [5-(4-hydroxy-phenyl)-[1,2,4]triazolo[1,5-a]pyridin-2-yl]-amide], the IC50 runs as follows: under setting [1], less than 1000 nM; under setting [2], 100 to 1000 nM.

Under setting [2], `c1cc(Nc2nc3cccc(-c4ccc5c(c4)OCCO5)n3n2)cc(OCCN2CCCC2)c1` [XX-100] had a half-maximal inhibitory concentration (IC50) of 100 to 1000 nM.

As to `COc1ccc(-c2cccc3nc(Nc4ccc(N(C)C(=O)C(C)N5CCCC5)cc4)nn23)cc1` (stereo not drawn) [XX-355], the IC50 under setting [2] lay in the range of 100 to 1000 nM.

Under setting [2], `c1cc(-c2ccc(OCC3CCCO3)cc2)n2nc(Nc3ccc(OCCN4CCCC4)cc3)nc2c1` (stereo not drawn) [XX-146] returned an IC50 of 100 to 1000 nM.

Under setting [2], `c1cc(-c2ccoc2)cc(-c2cccc3nc(Nc4ccc(OCCN5CCCC5)cc4)nn23)c1` [XX-165] showed an IC50 of 100 to 1000 nM.

For `Cc1nnc(SCCn2cc(-c3cccc4nc(Nc5ccc(OCCN6CCCC6)cc5)nn34)cn2)s1` [XX-430], the IC50 under setting [2] is 100 to 1000 nM.

On to `COc1ccc(-c2cccc3nc(Nc4ccc(N5CCOCC5)cc4)nn23)cc1` [XX-024], for which the IC50 is 1000 to 10000 nM under setting [1] and no more than 100 nM under setting [2].

Consider `c1ccc(CNc2ccc(-c3cccc4nc(Nc5ccc(OCCN6CCCC6)cc5)nn34)cc2)cc1` [XX-252], for which the IC50 under setting [2] lay within 100 to 1000 nM.

Consider `CNCCOc1cccc(Nc2nc3cccc(-c4ccc5c(c4)OCCO5)n3n2)c1` [XX-081], for which the IC50 is, setting by setting: under setting [1], less than 1000 nM; under setting [2], no more than 100 nM.

`CC(CNc1cccc(Nc2nc3cccc(-c4ccc5c(c4)OCCO5)n3n2)c1)N1CCCC1` (stereo not drawn) [XX-140] came in with an IC50 under setting [2] of 100 to 1000 nM.

The molecule `C#CCOc1ccc(-c2cccc3nc(Nc4ccc(OCCN5CCCC5)cc4)nn23)cc1` [XX-148] returned an IC50 under setting [2] of 100 to 1000 nM.

Molecule `C#CCn1cc(-c2cccc3nc(Nc4ccc(OCCN5CCCC5)cc4)nn23)cn1` [XX-302] showed an IC50 under setting [2] of 100 to 1000 nM.

For `c1cc(-c2ccc(-c3cn[nH]c3)cc2)n2nc(Nc3ccc(OCCN4CCCC4)cc3)nc2c1` [XX-187], the IC50 under setting [2] is 100 to 1000 nM.

`CC(=O)Nc1cccc(-c2cccc3nc(Nc4ccc(OCCN5CCCC5)cc4)nn23)c1` [XX-241]: under setting [2], the IC50 was 100 to 1000 nM.

For `Cc1cc(-c2ccc3c(c2)OCCO3)n2nc(Nc3ccc(OCCN4CCCC4)cc3)nc2c1` [XX-311, [5-(2,3-Dihydro-benzo[1,4]dioxin-6-yl)-7-methyl-[1,2,4]triazolo[1,5-a]pyridin-2-yl]-[4-(2-pyrrolidin-1-yl-ethoxy)-phenyl]-amine], the IC50 under setting [2] fell in the range of 100 to 1000 nM.

Molecule `CCCCNC(=O)c1cccc(-c2cccc3nc(Nc4ccc(OCCN5CCCC5)cc4)nn23)c1` [XX-301] registered an IC50 under setting [2] of 1000 to 10000 nM.

For the molecule `O=C(Nc1nc2cccc(-c3ccc(NS(=O)(=O)c4ccccc4)cc3)n2n1)C1CC1` [WW-156], the IC50 by setting is: under setting [1], 1000 to 10000 nM; under setting [2], 1000 to 10000 nM.

As for `Clc1ccccc1COc1cccc(-c2cccc3nc(Nc4ccc(OCCN5CCCC5)cc4)nn23)c1` [XX-339], the IC50 under setting [2] was in the range of 1000 to 10000 nM.

With `O=C(NCc1cccc(-c2cccc3nc(Nc4ccc(OCCN5CCCC5)cc4)nn23)c1)Nc1ccccc1` [XX-371], under setting [2], the IC50 was in the range of 100 to 1000 nM.

`Cc1ccc(-c2cccc3nc(Nc4cccc(C(=O)NCCN5CCCC5)c4)nn23)cc1F` [XX-365] registered an IC50 under setting [2] of 100 to 1000 nM.

In turn, `Cc1nc(CNc2cccc(-c3cccc4nc(Nc5ccc(OCCN6CCCC6)cc5)nn34)c2)c(C)o1` [XX-397] displayed an IC50 under setting [2] of 100 to 1000 nM.

In turn, `CS(=O)(=O)Nc1ccc(-c2cccc3nc(Nc4ccc(OCCN5CCCC5)cc4)nn23)cc1` [XX-253] returned an IC50 under setting [2] of 100 to 1000 nM.

For `Cn1ccc2cc(-c3cccc4nc(NC(=O)C5CC5)nn34)ccc21` [WW-066], the IC50 was less than 1000 nM under setting [1] and 100 to 1000 nM under setting [2].

Turning to `O=C(Nc1nc2cccc(-c3ccco3)n2n1)C1CC1` [WW-061], the IC50 reads like this: under setting [1], 1000 to 10000 nM; under setting [2], 1000 to 10000 nM.

Turning to `COc1ccc(NC(=O)Nc2cccc(-c3cccc4nc(Nc5ccc(OCCN6CCCC6)cc5)nn34)c2)cc1` [XX-231], under setting [2], the 50% inhibitory concentration (IC50) lay within 100 to 1000 nM.

In turn, `c1ccc(-c2nnc(-c3cccc(-c4cccc5nc(Nc6ccc(OCCN7CCCC7)cc6)nn45)c3)o2)cc1` [XX-309, {5-[3-(5-Phenyl-[1,3,4]oxadiazol-2-yl)-phenyl]-[1,2,4]triazolo[1,5-a]pyridin-2-yl}-[4-(2-pyrrolidin-1-yl-ethoxy)-phenyl]-amine] returned an IC50 under setting [2] of 1000 to 10000 nM.

Consider `CN(C)CCNC(=O)c1cccc(Nc2nc3cccc(-c4ccc5c(c4)OCO5)n3n2)c1` [XX-002], for which the IC50 runs as follows: under setting [1], less than 1000 nM; under setting [2], 100 to 1000 nM.

On to `Oc1ccc(-c2cccc3nc(Nc4ccc(OCCN5CCCC5)cc4)nn23)cc1` [XX-151], for which the IC50 under setting [2] lay in the range of 100 to 1000 nM.

`c1cc(-c2ccc3c(c2)OCCO3)n2nc(Nc3ccc(NCCCN4CCCCC4)cc3)nc2c1` [XX-129] yielded an IC50 under setting [2] of 100 to 1000 nM.

In the case of `O=C(Nc1nc2cccc(-c3ccc(F)cc3)n2n1)C1CC1` [WW-013], the IC50 reads like this: under setting [1], 1000 to 10000 nM; under setting [2], 1000 to 10000 nM.

On to `COc1ccc(Nc2cccc3nc(NC(=O)C4CC4)nn23)cc1` [WW-127, Cyclopropanecarboxylic acid [5-(4-methoxy-phenylamino)-[1,2,4]triazolo[1,5-a]pyridin-2-yl]-amide], for which the IC50 is, setting by setting: under setting [1], 1000 to 10000 nM; under setting [2], 1000 to 10000 nM.

On to `COc1ccc(-c2cccc3nc(NC(=O)C4CC4)nn23)cc1F` [WW-067], for which the IC50 was in the range of 1000 to 10000 nM under setting [1] and 1000 to 10000 nM under setting [2].

Consider `c1cc(-c2ccc(NCc3ccoc3)cc2)n2nc(Nc3ccc(OCCN4CCCC4)cc3)nc2c1` [XX-268], for which the IC50 under setting [2] was 100 to 1000 nM.

As for `Cc1cc(Nc2nc3cccc(-c4ccc5c(c4)OCCO5)n3n2)ccc1OCC(N)=O` [XX-071], the IC50 fell in the range of 1000 to 10000 nM under setting [1] and 1000 to 10000 nM under setting [2].

The molecule `COc1ccc(-c2cccc3nc(Nc4ccc(C(=O)NCCN5CCCC5)s4)nn23)cc1` [XX-409] showed an IC50 under setting [2] of 100 to 1000 nM.

On to `COc1cccc(COc2cccc(-c3cccc4nc(Nc5ccc(OCCN6CCCC6)cc5)nn34)c2)c1` [XX-335], for which, under setting [2], the IC50 lay in the range of 100 to 1000 nM.

Consider `COc1c(C)cc(-c2cccc3nc(NC(=O)C4CC4)nn23)cc1C` [WW-095], for which the IC50 was 1000 to 10000 nM under setting [1] and 1000 to 10000 nM under setting [2].

In turn, `O=C(Nc1ccc(-c2cccc3nc(Nc4ccc(OCCN5CCCC5)cc4)nn23)cc1)c1cccc(Cl)c1` [XX-220] returned an IC50 under setting [2] of 1000 to 10000 nM.
